Source: patent US20220220095A1, “N-((HETEROARYL)METHYL)-1-TOSYL-1H-PYRAZOLE-3-CARBOXAMIDE DERIVATIVES AS Kv3 POTASSIUM CHANNEL ACTIVATORS FOR TREATING NEUROLOGICAL AND [sequence] DISORDERS” (H. Lundbeck A/S, priority 2019, published 2022)

Molecular target: T1, hKv3.1b (Homo sapiens, UniProt P48547)
T1 construct: expressed in transfected cells
T1 sequence (P48547 1-585 isoform P48547-2): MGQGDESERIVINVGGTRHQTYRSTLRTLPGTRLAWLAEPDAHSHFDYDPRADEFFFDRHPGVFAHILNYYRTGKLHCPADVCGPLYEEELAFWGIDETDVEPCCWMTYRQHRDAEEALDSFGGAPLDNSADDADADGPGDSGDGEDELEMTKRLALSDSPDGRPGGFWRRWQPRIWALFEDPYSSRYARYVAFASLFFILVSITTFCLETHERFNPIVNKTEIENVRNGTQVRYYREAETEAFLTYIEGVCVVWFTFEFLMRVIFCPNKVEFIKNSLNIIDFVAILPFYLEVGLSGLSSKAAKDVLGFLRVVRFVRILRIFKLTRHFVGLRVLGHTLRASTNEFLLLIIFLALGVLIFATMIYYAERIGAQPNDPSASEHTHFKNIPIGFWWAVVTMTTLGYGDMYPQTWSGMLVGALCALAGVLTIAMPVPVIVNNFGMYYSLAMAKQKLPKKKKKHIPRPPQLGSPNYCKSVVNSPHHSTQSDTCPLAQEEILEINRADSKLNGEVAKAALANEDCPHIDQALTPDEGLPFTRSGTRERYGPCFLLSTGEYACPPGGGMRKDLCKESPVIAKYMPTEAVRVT
Test: Automated whole-cell patch-clamp (QPatch-16x) on HEK-293 cells stably expressing hKv3.1b: shift of voltage threshold for channel activation
Type: cell-based
Details: HEK-293 hKv3.1b; for ECdelta5mV: concentration needed to shift the threshold 5 mV, read out from fitted concentration response curve; for Max Delta threshold: maximum absolute shift of activation threshold to more hyperpolarized potentials at the tested concentrations (0.37, 1.11, 3.33, 10, 30 μM)
Description: HEK-293 cells stably expressing hKv3.1b was used for the experiments. Cells were cultured in DMEM medium supplemented with 10% Fetal Bovine Serum, 100 ug/mL Geneticidin and 100 u/mL Penicillin/Streptomycin (all from Gibco). Cells were grown to 80-90% confluency at 37° C. and 5% CO2. On the day of the experiment the cells were detached from the tissue culture flasks by Detachin and resuspended in serum free medium containing 25 mM HEPES and transferred to the cell hotel of the QPatch. The cells were used for experiments 0-5 hours after detachment.
Patch-clamp recordings were performed using the automated recording system QPatch-16x (Sophion Bioscience, Denmark). Cells were centrifuged, SFM removed and the cells were resuspended in extracellular buffer containing (in mM): 145 NaCl, 4 KCl, 1 MgCl2, 2 CaCl2, 10 HEPES and 10 glucose (added fresh on the day of experiment); pH 7.4 adjusted with NaOH, 305 mOsm adjusted with sucrose.
Single cell whole-cell recordings were carried out using an intracellular solution containing (in mM): 120 KCl, 32.25/10 KOH/EGTA, 5.374 CaCl2, 1.75 MgCl2, 10 HEPES, 4 Na2ATP (added fresh on the day), pH 7.2 adjusted with KOH, […] adjusted with sucrose. Cell membrane potentials were held at −80 mV and currents were evoked by voltage steps (200 ms duration) from −70 mV to +10 mV (in 10 mV increments).
Leak subtraction protocol was applied at −33% of the sweep amplitude, and serial resistance values were constantly monitored.
Any cell where serial resistance exceeded 25 MOhm, membrane resistance less than 200 MOhm or current size at −10 mV less than 200 pA was eliminated from the subsequent analysis.
Data analysis was performed using Sophion's QPatch assay software in combination with Microsoft Excel™ (Redmond, Wash., USA).
Current voltage relationships were plotted from the peak current at the individual voltage steps normalized to the vehicle addition at 10 mV. The voltage threshold for channel activation was defined as 5% activation of the peak current at 10 mV in presence of vehicle. The activity of the compounds was described as the ability to shift this current voltage relationship to more hyperpolarized potentials and is given as the maximum absolute shift possible at the tested concentrations (0.37, 1.11, 3.33, 10, 30 μM). Concentration response curves were plotted from the threshold shift at the individual concentrations and were fitted excel fit model 205 sigmodal dose-response model (fit=A+((B−A)/1+((C/x)^D)))), where A is the minimum value, B the maximum value, C the EC50 value and D the slope of the curve. The concentration needed to shift the threshold 5 mV was readout from this curve (ECdelta 5 mV).

| ECdelta5mV [nM] | Max Delta threshold [mV] | SMILES |
| --- | --- | --- |
| 4600 | 16 | Cc1cnc(CNC(=O)c2ccn(S(=O)(=O)c3ccc(F)c(Cl)c3)n2)cn1 [Compound 69, 1-(3-chloro-4-fluoro-phenyl)sulfonyl-N-[(5-methylpyrazin-2-yl)methyl]pyrazole-3-carboxamide] |
| 1100 | 29 | Cc1ccc(S(=O)(=O)n2ccc(C(=O)NCc3cnc(C)cn3)n2)c(C)c1 [Compound 77, 1-(2,4-dimethylphenyl)sulfonyl-N-[(5-methylpyrazin-2-yl)methyl]pyrazole-3-carboxamide] |
| 2000 | 19 | Cc1ccc(S(=O)(=O)n2ccc(C(=O)NCc3nc(C)cs3)n2)cc1 [Compound 61, 1-(4-methylbenzene-1-sulfonyl)-N-[(4-methyl-1,3-thiazol-2-yl)methyl]-1H-pyrazole-3-carboxamide] |
| 2400 | 31 | Cc1cnc(CNC(=O)c2ccn(S(=O)(=O)c3ccc(F)cc3C)n2)cn1 [Compound 66, 1-(4-fluoro-2-methyl-phenyl)sulfonyl-N-[(5-methylpyrazin-2-yl)methyl]pyrazole-3-carboxamide] |
| 3600 | 25 | Cc1cnc(CNC(=O)c2ccn(S(=O)(=O)c3ccc(OC(F)F)cc3)n2)cn1 [Compound 65, 1-[4-(difluoromethoxy)phenyl]sulfonyl-N-[(5-methylpyrazin-2-yl)methyl]pyrazole-3-carboxamide] |
| 3500 | 27 | Cc1cnc(CNC(=O)c2ccn(S(=O)(=O)c3ccc(C(F)F)cc3)n2)cn1 [Compound 71, 1-[4-(difluoromethyl)phenyl]sulfonyl-N-[(5-methylpyrazin-2-yl)methyl]pyrazole-3-carboxamide] |
| 2900 | 18 | Cc1ccc(S(=O)(=O)n2ccc(C(=O)NCc3ncn(C)n3)n2)cc1 [Compound 60, 1-(4-methylbenzene-1-sulfonyl)-N-[(1-methyl-1H-1,2,4-triazol-3-yl)methyl]-1H-pyrazole-3-carboxamide] |
| 1100 | 34 | Cc1cnc(CNC(=O)c2ccn(S(=O)(=O)c3ccc(Cl)cc3C)n2)cn1 [Compound 67, 1-(4-chloro-2-methyl-phenyl)sulfonyl-N-[(5-methylpyrazin-2-yl)methyl]pyrazole-3-carboxamide] |
| 2700 | 21 | Cc1cnc(CNC(=O)c2ccn(S(=O)(=O)c3c(C)cc(F)cc3C)n2)cn1 [Compound 83, 1-(4-fluoro-2,6-dimethyl-phenyl)sulfonyl-N-[(5-methylpyrazin-2-yl)methyl]pyrazole-3-carboxamide] |
| 4000 | 19 | Cc1cnc(CNC(=O)c2ccn(S(=O)(=O)c3ccc(OC(F)(F)F)cc3)n2)cn1 [Compound 70, N-[(5-methylpyrazin-2-yl)methyl]-1-[4-(trifluoromethoxy)phenyl]sulfonyl-pyrazole-3-carboxamide] |
| 1500 | 24 | Cc1ccc(S(=O)(=O)n2ccc(C(=O)NCc3nc(C)no3)n2)cc1 [Compound 48, 1-(4-methylbenzene-1-sulfonyl)-N-[(3-methyl-1,2,4-oxadiazol-5-yl)methyl]-1H-pyrazole-3-carboxamide] |

The next lines start with the compound.

| SMILES | ECdelta5mV [nM] | Max Delta threshold [mV] |
| --- | --- | --- |
| Cc1cccc(S(=O)(=O)n2ccc(C(=O)NCc3cnn(C)c3)n2)c1 [Compound 21, 1-(3-methylbenzene-1-sulfonyl)-N-[(1-methyl-1H-pyrazol-4-yl)methyl]-1H-pyrazole-3-carboxamide] | 3700 | 16 |
| Cc1cnc(CNC(=O)c2ccn(S(=O)(=O)c3ccccc3C)n2)o1 [Compound 17, 1-(2-methylbenzene-1-sulfonyl)-N-[(5-methyl-1,3-oxazol-2-yl)methyl]-1H-pyrazole-3-carboxamide] | 3900 | 15 |
| Cc1ccc(S(=O)(=O)n2cc(C)c(C(=O)NCc3cnc(C)cn3)n2)cc1 [Compound 32, 4-methyl-1-(4-methylbenzene-1-sulfonyl)-N-[(5-methylpyrazin-2-yl)methyl]-1H-pyrazole-3-carboxamide] | 4300 | 12 |
| COc1ccc(S(=O)(=O)n2ccc(C(=O)NCc3ncn(C)n3)n2)cc1 [Compound 13, 1-(4-methoxybenzene-1-sulfonyl)-N-[(1-methyl-1H-1,2,4-triazol-3-yl)methyl]-1H-pyrazole-3-carboxamide] | 4000 | 16 |
| COc1ccc(S(=O)(=O)n2ccc(C(=O)NCc3ncc(C)cn3)n2)cc1 [Compound 37, 1-(4-methoxybenzene-1-sulfonyl)-N-[(5-methylpyrimidin-2-yl)methyl]-1H-pyrazole-3-carboxamide] | 2400 | 27 |
| Cc1ccc(S(=O)(=O)n2ccc(C(=O)NCc3ccn(C)n3)n2)cc1 [Compound 39, 1-(4-methylbenzene-1-sulfonyl)-N-[(1-methyl-1H-pyrazol-3-yl)methyl]-1H-pyrazole-3-carboxamide] | 1600 | 21 |
| Cc1ccc(S(=O)(=O)n2ccc(C(=O)NCc3nncs3)n2)cc1 [Compound 47, 1-(4-methylbenzene-1-sulfonyl)-N-[(1,3,4-thiadiazol-2-yl)methyl]-1H-pyrazole-3-carboxamide] | 3300 | 16 |
| COc1ccc(S(=O)(=O)n2ccc(C(=O)NCc3cnccn3)n2)c(C)c1 [Compound 3, 1-(4-methoxy-2-methylbenzene-1-sulfonyl)-N-[(pyrazin-2-yl)methyl]-1H-pyrazole-3-carboxamide] | 1600 | 25 |
| COc1ccc(S(=O)(=O)n2ccc(C(=O)NCc3cnn(C)c3)n2)cc1 [Compound 41, 1-(4-methoxybenzene-1-sulfonyl)-N-[(1-methyl-1H-pyrazol-4-yl)methyl]-1H-pyrazole-3-carboxamide] | 1200 | 25 |
| Cc1ccc(S(=O)(=O)n2ccc(C(=O)NCc3ncco3)n2)cc1 [Compound 45, 1-(4-methylbenzene-1-sulfonyl)-N-[(1,3-oxazol-2-yl)methyl]-1H-pyrazole-3-carboxamide] | 2800 | 15 |
| Cc1cc(CNC(=O)c2ccn(S(=O)(=O)c3ccccc3)n2)on1 [Compound 14, 1-(benzenesulfonyl)-N-[(3-methyl-1,2-oxazol-5-yl)methyl]-1H-pyrazole-3-carboxamide] | 4500 | 14 |
| COc1ccc(S(=O)(=O)n2ccc(C(=O)NCc3cnc(C)cn3)n2)cc1C [Compound 1, 1-(4-methoxy-3-methylbenzene-1-sulfonyl)-N-[(5-methylpyrazin-2-yl)methyl]-1H-pyrazole-3-carboxamide] | 1800 | 23 |
| COc1ccc(S(=O)(=O)n2ccc(C(=O)NCc3ccc(C)cn3)n2)cc1 [Compound 40, 1-(4-methoxybenzene-1-sulfonyl)-N-[(5-methylpyridin-2-yl)methyl]-1H-pyrazole-3-carboxamide] | 2000 | 21 |
